How the values were obtained:
Human 5-HT6 Receptor = target: T1, Human 5-HT6 Receptor (Homo sapiens, UniProt P50406); assay: Nova Screen binding assay for human 5-HT6 receptor ([3H]LSD radioligand binding); conditions: human recombinant receptor expressed in HEK293 cells, [3H]LSD 1.5 nM; for inhibition at 0.1 µM: read-out: % Inhibition at 100 nM, radioligand binding data at 5ht6R (h); for Ki: 60 minutes at 37° C., read-out: Ki, radioligand binding data at 5ht6R (h)
T1 construct: host or cells: HEK293
Procedure: Nova Screen Binding Assay for Human 5-HT6 Receptor
Pharmacological data Compounds can be tested according to the following the procedures.
Receptor source: Human recombinant expressed in HEK293 cells
Radioligand: [^3H]LSD (60-80 Ci/mmol)
Final ligand concentration—[1.5 nM]
Non-specific determinant: Methiothepin mesylate—[0.1 μM]
Reference compound: Methiothepin mesylate
Positive control: Methiothepin mesylate
Incubation conditions: Reactions were carried out in 50 mM TRIS-HCl (pH 7.4) containing 10 mM MgCl2, 0.5 mM EDTA for 60 minutes at 37° C. The reaction was terminated by rapid vacuum filtration onto glass fiber filters. Radioactivity trapped onto the filters was determined and compared to control values in order to ascertain any interactions of test compound(s) with the cloned serotonin -5HT6 binding site.
Literature Reference: Monsma F. J. Jr., et al., Molecular Cloning and Expression of Novel Serotonin Receptor with High Affinity for Tricyclic Psychotropic Drugs. Mol. Pharmacol. (43): 320-327 (1993).

Adult male Wistar rats = assay: Passive avoidance (single-trial, step through, light-dark paradigm); assay type: in vivo, rat; conditions: 10 mg/Kg oral dose; recall 24 h, 72 h and 7 day post-training (FIG. 2)
From the text: Passive Avoidance Apparatus Animals were trained in a single-trial, step through, light-dark passive avoidance paradigm. The training apparatus consisted of a chamber 300 mm in length, 260 mm wide, and 270 mm in height, constructed to established designs. The front and top were transparent, allowing the experimenter to observe the behavior of the animal inside the apparatus. The chamber was divided into two compartments, separated by a central shutter that contained a small opening 50 mm wide and 75 mm high set close to the front of the chamber. The smaller of the compartments measured […] in width and contained a low-power (6V) illumination source. The larger compartment measured 210 mm in width and was not illuminated. […] A resistance range of […] was calculated for a control group of rats and the apparatus was calibrated accordingly. […] Latency to enter the dark chamber was recorded (usually <20 s), and having completely entered the dark compartment an inescapable foot shock of 0.75 mA for 3 s was administered to the animal. […] Recall of this inhibitory stimulus was evaluated 24 h, 72 h and on 7 day post-training by returning the animal into the light chamber and recording their latency to enter the dark chamber, a criterion time of 300 s was employed.

Male Wistar rats = assay: Object recognition task model; assay type: in vivo, rat; conditions: orally or i.p. one hour before T1 and T2; T2 24 hour after T1; example 6 at 10 mg/Kg orally (FIG. 1)
Procedure: Object Recognition Task Model
The cognition-enhancing properties of compounds of this invention were estimated using a model of animal cognition: the object recognition task model.
Male wistar rats (230-280 g) obtained from N I.N. (National Institute of Nutrition, Hyderabad, India) were used as an experimental animal. Four animals were housed in each cage. Animals were kept on 20% food deprivation before one day and given water ad libitum throughout the experiment, and maintained on a 12 h light/dark cycle. Also the rats were habituated to individual arenas for 1 hour in absence of any objects.
One group of 12 rats received vehicle (1 mL/Kg) orally and another set of animals received compound of the formula (I) either orally or i.p., before one hour of the familiar (T1) and choice trial (T2). The experiment was carried out in a 50×50×50 Cm open field made up of acrylic. In the familiarization phase, (T1), the rats were placed individually in the open field for 3 min., in which two identical objects (plastic bottles, 12.5 Cm height×5.5 Cm diameter) covered in yellow masking tape alone (a1 and a2) were positioned in two adjacent corners, 10 Cm. from the walls. After 24 hour of the (T1) trial for long-term memory test, the same rats were placed in the same arena as they were placed in T1 trial. […]

T1 sequence (P50406 whole entry): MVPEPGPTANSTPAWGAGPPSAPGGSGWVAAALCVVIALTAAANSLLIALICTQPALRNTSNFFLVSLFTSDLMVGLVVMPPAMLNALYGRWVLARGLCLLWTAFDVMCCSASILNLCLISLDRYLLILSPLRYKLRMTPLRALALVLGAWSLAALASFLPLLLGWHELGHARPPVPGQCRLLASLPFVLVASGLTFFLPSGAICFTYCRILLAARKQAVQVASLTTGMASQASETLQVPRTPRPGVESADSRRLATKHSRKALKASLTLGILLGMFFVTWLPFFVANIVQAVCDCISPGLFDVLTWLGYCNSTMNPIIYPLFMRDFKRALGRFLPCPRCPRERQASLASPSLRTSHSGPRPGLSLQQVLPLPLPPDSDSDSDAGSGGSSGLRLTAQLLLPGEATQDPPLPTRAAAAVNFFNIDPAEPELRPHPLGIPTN

Row | SMILES | inhibition at 0.1 µM (Human 5-HT6 Receptor; 100 nM) | Ki (Human 5-HT6 Receptor) | latency to reach the dark zone (Adult male Wistar rats) | novel object recognition (exploration time with novel object, discrimination index) (Male Wistar rats) | % Inhibition at 100 nM, radioligand binding data at 5ht6R (h) (Human 5-HT6 Receptor; 100 nM)
1 | CN1CCC(Nc2cccc(S(=O)(=O)n3ccc4ccccc43)c2)CC1 [Example 1, 1-[3-(1-Methylpiperidin-4-yl)amino]benzenesulfonyl-1H-indole] | 96.8% | 3.19 nM | – | – | –
2 | COc1ccc2c(ccn2S(=O)(=O)c2cccc(NC3CCN(C)CC3)c2)c1 [Example 2, 1-[3-(1-Methylpiperidin-4-yl)amino]benzenesulfonyl-5-methoxyindole] | 82.2% | 12.5 nM | – | – | –
3 | CN1CCC(Nc2cccc(S(=O)(=O)n3ccc4cc(Br)ccc43)c2)CC1 [Example 4, 1-[3-(1-Methylpiperidin-4-yl)amino]benzenesulfonyl-5-bromoindole] | 92.2% | 10.3 nM | – | – | –
4 | CN1CCC(Nc2cccc(S(=O)(=O)n3ccc4cc(F)ccc43)c2)CC1 [Example 6, 1-[3-(1-Methylpiperidin-4-yl)amino]benzenesulfonyl-5-fluoroindole] | 93.2% | 7 nM | significant increase in latency | positive effects | –
5 | COc1ccc2c(ccn2S(=O)(=O)c2ccc(C)c(NC3CCN(C)CC3)c2)c1 [Example 10, 1-[3-(1-Methylpiperidin-4-yl)amino-4-methyl]benzenesulfonyl-5-methoxyindole] | 85.3% | 20.9 nM | – | – | –
6 | COc1ccc(S(=O)(=O)n2ccc3ccccc32)cc1NC1CCN(C)CC1 [Example 17, 1-[3-(1-Methylpiperidin-4-yl)amino-4-methoxy]benzenesulfonyl-1H-indole] | 101% | 1.29 nM | – | – | –
7 | CN1CCC(Nc2cc(S(=O)(=O)n3ccc4ccccc43)ccc2F)CC1 [Example 25, 1-[3-(1-Methylpiperidin-4-yl)amino-4-Fluoro]benzenesulfonylindole] | – | – | – | – | 99.33%
